Like-named read-outs stand apart in the source and are kept apart here.
Columns and labels:
[1] = target: T1, Recombinant STAT3 protein (STAT3 (G127-I722)) (Homo sapiens, UniProt P40763); assay: STAT3 Fluorescence Polarization (FP) Assay; format: binding; settings: probe 5-FAM-GpYLPQTV-NH2 2 nM, 45-minute incubation
T1 construct: Recombinant STAT3 protein (STAT3 (G127-I722))
Method in brief: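 Read-out is fluorescence polarization (mP) after 45 min at room temperature, with IC50 fitted by nonlinear regression against log compound concentration. Mixture: 25 nM STAT3 (G127-I722), 2 nM 5-FAM-GpYLPQTV-NH2 phosphopeptide, 10 mM HEPES pH 7.4 buffer, 1% DMSO.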

[2] = target: T2, Recombinant STAT6 protein (STAT6 (W123-T658)) (Homo sapiens, UniProt P42226); assay: STAT6 Fluorescence Polarization (FP) Assay; format: binding; settings: probe 5-FAM-Ap[…]-NH2 2 nM, 45-minute incubation
T2 construct: Recombinant STAT6 protein (STAT6 (W123-T658))
T2 sequence (P42226 123-658): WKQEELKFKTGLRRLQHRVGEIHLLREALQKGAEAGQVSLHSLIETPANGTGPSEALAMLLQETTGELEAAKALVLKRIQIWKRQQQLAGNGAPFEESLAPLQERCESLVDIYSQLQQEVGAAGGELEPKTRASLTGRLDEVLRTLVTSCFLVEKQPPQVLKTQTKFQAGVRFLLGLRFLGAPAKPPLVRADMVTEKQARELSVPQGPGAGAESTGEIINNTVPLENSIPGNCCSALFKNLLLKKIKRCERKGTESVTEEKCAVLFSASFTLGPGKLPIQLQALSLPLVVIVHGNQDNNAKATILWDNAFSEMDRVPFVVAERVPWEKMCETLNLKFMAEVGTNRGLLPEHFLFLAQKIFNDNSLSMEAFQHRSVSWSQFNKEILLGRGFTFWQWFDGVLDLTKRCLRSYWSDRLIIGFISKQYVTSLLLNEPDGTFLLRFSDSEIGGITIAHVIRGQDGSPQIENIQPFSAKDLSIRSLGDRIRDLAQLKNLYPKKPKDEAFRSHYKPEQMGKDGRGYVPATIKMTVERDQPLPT
Method in brief: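 Protein-probe mix (250 nM STAT6 W123-T658, 2 nM 5-FAM-pTyr peptide) in 10 mM HEPES pH 7.4, 50 mM NaCl, 1 mM EDTA, 0.05% Tween 20, 2 mM DTT; added to compound dilution series, 1% DMSO final; 45 min RT; FP read; IC50 via nonlinear regression.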

[3] = STAT3 25 nM, read-out: STAT3 (FP assay IC50)
[4] = STAT6 250 nM, read-out: STAT6 (FP assay IC50)
[5] = STAT3 (G127-I722) 25 nM, read-out: STAT3 (FP assay IC50 class)
[6] = STAT6 (W123-T658) 250 nM, read-out: STAT6 (FP assay IC50 class)

T1 sequence (P40763 127-722): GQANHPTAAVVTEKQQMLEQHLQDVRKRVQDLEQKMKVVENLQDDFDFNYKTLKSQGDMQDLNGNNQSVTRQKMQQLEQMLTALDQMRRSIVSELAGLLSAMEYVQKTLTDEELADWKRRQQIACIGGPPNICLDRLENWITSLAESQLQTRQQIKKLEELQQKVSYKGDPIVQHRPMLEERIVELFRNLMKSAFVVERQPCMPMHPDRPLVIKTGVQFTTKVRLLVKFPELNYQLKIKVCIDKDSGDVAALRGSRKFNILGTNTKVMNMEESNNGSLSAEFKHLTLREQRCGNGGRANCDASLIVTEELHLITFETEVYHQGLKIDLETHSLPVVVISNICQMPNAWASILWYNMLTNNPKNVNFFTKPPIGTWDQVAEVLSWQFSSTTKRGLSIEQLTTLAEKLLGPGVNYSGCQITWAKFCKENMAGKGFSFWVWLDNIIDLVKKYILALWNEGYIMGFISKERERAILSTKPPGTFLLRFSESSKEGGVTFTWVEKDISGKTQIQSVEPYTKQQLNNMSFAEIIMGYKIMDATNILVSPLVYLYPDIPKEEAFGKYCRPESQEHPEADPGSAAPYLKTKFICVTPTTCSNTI

| Structure (SMILES) | IC50 [1, 3] [µM] | IC50 [2, 4] [µM] | IC50 [1, 5] [µM] | IC50 [2, 6] [µM] |
| --- | --- | --- | --- | --- |
| O=C(N[C@H]1CC/C=C\[C@H]2CC[C@@H](C(=O)N3CC(c4cccnc4)C3)N2C1=O)c1cc2cc(C(F)(F)P(=O)(O)O)ccc2s1 [Compound 26, (difluoro(2-(((3S,6S,10aR,Z)-5-oxo-3-(3-(pyridin-3-yl)azetidine-1-carbonyl)-1,2,3,5,6,7,8,10a-octahydropyrrolo[1,2-a]azocin-6-yl)carbamoyl)benzo[b]thiophen-5-yl)methyl) phosphonic acid] | < 0.1 | 0.3 to 3 | – | – |
| O=C(N[C@H]1CCC[C@H]2CC[C@@H](C(=O)N3CC(c4ncccc4F)C3)N2C1=O)c1cc2cc(C(F)P(=O)(O)O)ccc2s1 (stereo partly drawn) [Compound 623, (fluoro(2-(((3S,6S,9aS)-3-(3-(3-fluoropyridin-2-yl)azetidine-1-carbonyl)-5-oxooctahydro-1H-pyrrolo[1,2-a]azepin-6-yl)carbamoyl)benzo [b]thiophen-5-yl)methyl) phosphonic acid] | – | – | 0.1 to 1 | 3 to 30 |
| O=C(N[C@H]1CCC[C@H]2CC[C@@H](C(=O)N3CC(c4cnccc4N4CCC4)C3)N2C1=O)c1cc2cc([C@@H](F)P(=O)(O)O)ccc2s1 (single isomer, unassigned) [Compound 741] | – | – | < 0.1 | 0.3 to 3 |
| COc1ccnc(C(F)F)c1C1CN(C(=O)[C@@H]2CC[C@@H]3CCC[C@H](NC(=O)c4cc5cc(CP(=O)(O)O)ccc5s4)C(=O)N32)C1 [Compound 594, ((2-(((3S,6S,9aS)-3-(3-(2-(difluoromethyl)-4-methoxypyridin-3-yl)azetidine-1-carbonyl)-5-oxooctahydro-1H-pyrrolo[1,2-a]azepin-6-yl)carbamoyl)benzo [b]thiophen-5-yl)methyl) phosphonic acid] | – | – | 1 to 10 | 3 to 30 |
| O=Cc1ccncc1C1CN(C(=O)[C@@H]2CC[C@@H]3CCC[C@H](NC(=O)c4cc5cc(CP(=O)(O)O)ccc5s4)C(=O)N32)C1 [Compound 545, ((2-(((3S,6S,9aS)-3-(3-(4-formylpyridin-3-yl)azetidine-1-carbonyl)-5-oxooctahydro-1H-pyrrolo[1,2-a]azepin-6-yl)carbamoyl)benzo[b]thiophen-5-yl)methyl)phosphonic acid] | – | – | 1 to 10 | 3 to 30 |
| CC(C)Oc1ccncc1C1CN(C(=O)[C@@H]2CC[C@@H]3C[C@@H](C)C[C@H](NC(=O)c4cc5cc([C@H](F)P(=O)(O)O)ccc5s4)C(=O)N32)C1 (single isomer, unassigned) [Compound 748] | – | – | < 0.1 | 3 to 30 |
| O=C(N[C@H]1CCCC[C@H]2CC[C@@H](C(=O)N3CC(C4CCOCC4)C3)N2C1=O)c1cc2cc(C(F)(F)P(=O)(O)O)ccc2s1 [Compound 118A, (difluoro(2-(((3S,6S,10a S)-5-oxo-3-(3-(tetrahydro-2H-pyran-4-yl)azetidine-1-carbonyl)decahydropyrrolo-[1,2a]azocin-6-yl)carbamoyl)benzo[b]thiophen-5-yl)methyl) phosphonic acid] | 0.1 to 1 | 3 to 30 | – | – |
| COC1(c2nccn2C)CN(C(=O)[C@@H]2CC[C@@H]3CCC4(CC4)C[C@H](NC(=O)c4cc5cc(C(F)(F)P(=O)(O)O)ccc5s4)C(=O)N32)C1 [Compound 768, (difluoro(2-(((3′S,6′S,10a′S)-3′-(3-methoxy-3-(1-methyl-1H-imidazol-2-yl)azetidine-1-carbonyl)-5′-oxooctahydro-5′H-spiro[cyclopropane-1,8′-pyrrolo[1,2-a]azocin]-6′-yl)carbamoyl)benzo [b]thiophen-5-yl)methyl) phosphonic acid] | – | – | 0.1 to 1 | 3 to 30 |
| CC(C)n1ccc(N2C(=O)N(C(=O)[C@@H]3CC[C@@H]4CCCC[C@H](NC(=O)c5cc6cc(C(F)P(=O)(O)O)ccc6s5)C(=O)N43)C3(CC3)C2=O)cc1=O (stereo partly drawn) [Compound 586, (fluoro(2-(((3S,6S,10aS)-3-(6-(1-isopropyl-2-oxo-1,2-dihydropyridin-4-yl)-5,7-dioxo-4,6-diazaspiro[2.4]heptane-4-carbonyl)-5-oxodecahydropyrrolo[1,2-a]azocin-6-yl)carbamoyl)benzo[b]thiophen-5-yl)methyl)phosphonic acid] | – | – | 1 to 10 | 0.3 to 3 |

From patent publication US20250215029A1 (Recludix Pharma, Inc., priority 2022, published 2025)
